Patent US5258406A, “Sulfonimidamides” (priority 1992, dated 1993)
Like-named read-outs stand apart in the source and are kept apart here.

Key:
Type in all cases: in vivo
[1] = system: 6C3HED lymphosarcoma; assay: animal or person
[2] = system: CX1; details: IP, DX 10, from day 7 after implant
[3] = system: C3H mammary adenocarcin; details: IP, DX 10
Description: (§1) The compounds were tested in C3H mice bearing a 6C3HED lymphosarcoma, also known as the Gardner lymphosarcoma (GLS), and in a variety of human tumor xenografts in CD1 nu/nu mice, including CX-1, LX-1, HXGC3, and VRC5. The 6C3HED lymphosarcoma was obtained from the Division of Cancer Treatment, National […] Institute, Tumor Bank, maintained at E. G. and G. Mason Research (Worcester, Mass.). The CX-1 human colon carcinoma and the LX-1 human lung carcinoma xenografts were obtained from the National Cancer Institute. The HXGC3 and VRC5 human colon xenografts were obtained from Dr. P. J. Houghton, St. Jude Children's Hospital in Memphis (see Br. J. Cancer, 37, 213 (1978)). First passage tumor was stored in liquid nitrogen using standard techniques. The transplanted tumor was reestablished from the Tumor Bank every six months or as needed. The tumor was maintained by serial passage twice weekly in C3H mice.
(§2) In the procedure the tumor was removed from passage animals and minced into 1- to 3-mm square fragments using sterile techniques. Tumor pieces were checked for sterility using both Antibiotic Medium 1 and Brain Heart Infusion (Difco, Detroit, Mich.). Recipient mice were shaved and tumor pieces were implanted subcutaneously in the auxiliary region by trocar. Drug therapy on the appropriate schedule was initiated on the day after tumor implant for 6C3HED and after a seven (7) day delay for xenografts (or other delay as noted in Table 2). The compound being tested was mixed with 2.5% Emulphor EL620 from GAF Corporation (1:40 dilution in saline). Food and water were provided ad libitium. The drug was administered orally in 0.5 ml of 2.5% Emulphor (unless otherwise indicated). The tumor was measured the day after treatment ended with two dimensional measurements (width and length) of the tumor taken using automated digital calipers interfaced to a microcomputer. Approximate weight for the tumor was calculated using the following formula [Worzalla, J. F., et al., Invest. New Drugs, 8, 241 (1990], (tumor weight in mg)=(width in mm)^2 ×(length in mm)/2.
(§3) At least one control group of an equal number of mice was treated with the same volume of 2.5% Emulphor only. The percent inhibition was determined by subtracting the ratio of the mean tumor size of the test group relative to the control group from one and multiplying the result times 100.
(§4) The results of several experiments in mice bearing a 6C3HED lymphosarcoma (or other tumor where indicated) when the indicated compounds were administered are provided in Table 2. In Table 2, column 1 gives the Example number of the compound used, column 2 lists the dose level in mg/kg, column 3 provides the percent inhibition of tumor growth, column 4 gives the number of mice which died relative to the total number of animals in the group, column 5 gives the method of administration of the compound, and column 6 gives the dosage schedule. The protocol used with other tumors was the same as with the 6C3HED lymphosarcoma.
(g) Tumor type C3H mammary adenocarcin

[4] = system: CA755 adenocarcinoma; details: IP, DX 10
Description: as §1, §2, §3, §4
(h) Tumor type CA755 adenocarcinoma

[5] = system: X5563 Plasma Cell Myeloma; details: IP, DX 10
Description: as §1, §2, §3, §4
(p) Tumor type X5563 Plasma Cell Myeloma

Cc1ccc(S(=N)(=O)NC(=O)Nc2ccc(Cl)cc2)cc1C (centres unmarked) [Example 36, N-[[(4-chlorophenyl)amino]carbonyl]-3,4-dimethylbenzenesulfonimidamide]
Tox/Tot (mice which died / total) ([1]; IP, 0.25 mg/kg, BIDX 8): 0/10
Tox/Tot (mice which died / total) ([1]; IP, 0.5 mg/kg, BIDX 8): 0/10
Tox/Tot (mice which died / total) ([1]; IP, 1 mg/kg, BIDX 8): 0/10
Tox/Tot (mice which died / total) ([1]; IP, 2 mg/kg, BIDX 8): 0/10
Tox/Tot (mice which died / total) ([1]; IP, 3.125 mg/kg, DX 8): 0/10
Tox/Tot (mice which died / total) ([1]; IP, 4 mg/kg, BIDX 8): 0/10
Tox/Tot (mice which died / total) ([1]; IP, 6.25 mg/kg, DX 8): 0/10
Tox/Tot (mice which died / total) ([1]; IP, 12.5 mg/kg, DX 8): 1/10
Tox/Tot (mice which died / total) ([1]; IP, 12.5 mg/kg, Days 1, 3, 5, 7): 0/10
Tox/Tot (mice which died / total) ([1]; IP, 25 mg/kg, DX 8): 2/10
Tox/Tot (mice which died / total) ([1]; IP, 25 mg/kg, Days 1, 3, 5, 7): 0/10
Tox/Tot (mice which died / total) ([1]; IP, 50 mg/kg, DX 8): 6/10
Tox/Tot (mice which died / total) ([1]; IP, 50 mg/kg, Days 1, 3, 5, 7): 0/10
Tox/Tot (mice which died / total) ([1]; IP, 100 mg/kg, Days 1, 3, 5, 7): 3/10
inhibition in vivo at 0.25 mg/kg ([1]; Mus musculus, 6C3HED, ip, read-out: % inhibition of tumor growth, IP, 0.25 mg/kg, BIDX 8): 16%
inhibition in vivo at 0.5 mg/kg ([1]; Mus musculus, 6C3HED, ip, read-out: % inhibition of tumor growth, IP, 0.5 mg/kg, BIDX 8): 29%
inhibition in vivo at 1 mg/kg ([1]; Mus musculus, 6C3HED, ip, read-out: % inhibition of tumor growth, IP, 1 mg/kg, BIDX 8): 43%
inhibition in vivo at 2 mg/kg ([1]; Mus musculus, 6C3HED, ip, read-out: % inhibition of tumor growth, IP, 2 mg/kg, BIDX 8): 75%
inhibition in vivo at 3.125 mg/kg ([1]; Mus musculus, 6C3HED, ip, read-out: % inhibition of tumor growth, IP, 3.125 mg/kg, DX 8): 74%
inhibition in vivo at 4 mg/kg ([1]; Mus musculus, 6C3HED, ip, read-out: % inhibition of tumor growth, IP, 4 mg/kg, BIDX 8): 97%
inhibition in vivo at 6.25 mg/kg ([1]; Mus musculus, 6C3HED, ip, read-out: % inhibition of tumor growth, IP, 6.25 mg/kg, DX 8): 93%
inhibition in vivo at 12.5 mg/kg ([1]; Mus musculus, 6C3HED, ip, read-out: % inhibition of tumor growth, IP, 12.5 mg/kg, DX 8): 98%
inhibition in vivo at 12.5 mg/kg ([1]; Mus musculus, 6C3HED, ip, read-out: % inhibition of tumor growth, IP, 12.5 mg/kg, Days 1, 3, 5, 7): 88%
inhibition in vivo at 25 mg/kg ([1]; Mus musculus, 6C3HED, ip, read-out: % inhibition of tumor growth, IP, 25 mg/kg, DX 8): 100%
inhibition in vivo at 25 mg/kg ([1]; Mus musculus, 6C3HED, ip, read-out: % inhibition of tumor growth, IP, 25 mg/kg, Days 1, 3, 5, 7): 99%
inhibition in vivo at 50 mg/kg ([1]; Mus musculus, 6C3HED, ip, read-out: % inhibition of tumor growth, IP, 50 mg/kg, DX 8): 100%
inhibition in vivo at 50 mg/kg ([1]; Mus musculus, 6C3HED, ip, read-out: % inhibition of tumor growth, IP, 50 mg/kg, Days 1, 3, 5, 7): 99%
inhibition in vivo at 100 mg/kg ([1]; Mus musculus, 6C3HED, ip, read-out: % inhibition of tumor growth, IP, 100 mg/kg, Days 1, 3, 5, 7): 100%
inhibition in vivo at 6.25 mg/kg ([1]; Mus musculus, 6C3HED, po, read-out: % inhibition of tumor growth, oral, 6.25 mg/kg, BIDX 8): 100%
inhibition in vivo at 12.5 mg/kg ([1]; Mus musculus, 6C3HED, po, read-out: % inhibition of tumor growth, oral, 12.5 mg/kg, BIDX 8): 100%
inhibition in vivo at 25 mg/kg ([1]; Mus musculus, 6C3HED, po, read-out: % inhibition of tumor growth, oral, 25 mg/kg, BIDX 8): 100%
inhibition in vivo at 50 mg/kg ([1]; Mus musculus, 6C3HED, po, read-out: % inhibition of tumor growth, oral, 50 mg/kg, BIDX 8): 100%
inhibition in vivo at 150 mg/kg ([1]; Mus musculus, 6C3HED, po, read-out: % inhibition of tumor growth, oral, 150 mg/kg, BIDX 8): 99%
Tox/Tot (mice which died / total) ([1]; oral, 6.25 mg/kg, BIDX 8): 2/8
Tox/Tot (mice which died / total) ([1]; oral, 12.5 mg/kg, BIDX 8): 5/8
Tox/Tot (mice which died / total) ([1]; oral, 25 mg/kg, BIDX 8): 2/8
Tox/Tot (mice which died / total) ([1]; oral, 50 mg/kg, BIDX 8): 7/8
% inhibition of tumor growth ([1]; oral, 100 mg/kg, BIDX 8): TOX
Tox/Tot (mice which died / total) ([1]; oral, 100 mg/kg, BIDX 8): 8/8
Tox/Tot (mice which died / total) ([1]; oral, 150 mg/kg, BIDX 8): 6/10
% inhibition of tumor growth ([1]; oral, 300 mg/kg, BIDX 8): TOX
Tox/Tot (mice which died / total) ([1]; oral, 300 mg/kg, BIDX 8): 10/10
% inhibition of tumor growth ([2]; 3.75 mg/kg): 4%
Tox/Tot (mice which died / total) ([2]; 3.75 mg/kg): 0/10
% inhibition of tumor growth ([2]; 7.5 mg/kg): 10%
Tox/Tot (mice which died / total) ([2]; 7.5 mg/kg): 0/10
% inhibition of tumor growth ([2]; 15 mg/kg): 32%
Tox/Tot (mice which died / total) ([2]; 15 mg/kg): 1/10
% inhibition of tumor growth ([2]; 30 mg/kg): 23%
Tox/Tot (mice which died / total) ([2]; 30 mg/kg): 4/10
% inhibition of tumor growth ([3]; 3.75 mg/kg): 38%
Tox/Tot (mice which died / total) ([3]; 3.75 mg/kg): 1/10
% inhibition of tumor growth ([3]; 7.5 mg/kg): 69%
Tox/Tot (mice which died / total) ([3]; 7.5 mg/kg): 0/10
% inhibition of tumor growth ([3]; 15 mg/kg): 74%
Tox/Tot (mice which died / total) ([3]; 15 mg/kg): 6/10
% inhibition of tumor growth ([3]; 30 mg/kg): TOX
Tox/Tot (mice which died / total) ([3]; 30 mg/kg): 10/10
% inhibition of tumor growth ([4]; 3.75 mg/kg): 26%
Tox/Tot (mice which died / total) ([4]; 3.75 mg/kg): 0/10
% inhibition of tumor growth ([4]; 7.5 mg/kg): 1%
Tox/Tot (mice which died / total) ([4]; 7.5 mg/kg): 0/10
% inhibition of tumor growth ([4]; 15 mg/kg): 42%
Tox/Tot (mice which died / total) ([4]; 15 mg/kg): 0/10
% inhibition of tumor growth ([4]; 30 mg/kg): 72%
Tox/Tot (mice which died / total) ([4]; 30 mg/kg): 0/10
% inhibition of tumor growth ([5]; 3.75 mg/kg): 35%
Tox/Tot (mice which died / total) ([5]; 3.75 mg/kg): 0/10
% inhibition of tumor growth ([5]; 7.5 mg/kg): 63%
Tox/Tot (mice which died / total) ([5]; 7.5 mg/kg): 1/10
% inhibition of tumor growth ([5]; 15 mg/kg): 88%
Tox/Tot (mice which died / total) ([5]; 15 mg/kg): 4/10
% inhibition of tumor growth ([5]; 30 mg/kg): 97%
Tox/Tot (mice which died / total) ([5]; 30 mg/kg): 3/10
